For four compounds, EC50 and Ki results are on record in ChEMBL document CHEMBL1137192, “Synthesis and neurotrophic activity of nonimmunosuppressant cyclosporin A derivatives” (Bioorg Med Chem Lett, 2004).

For one assay, the system named is T-cell. The assay can be described thus: Inhibition of T-cell proliferation. The format is functional. The following applies: read-out: ED50 (the source's name).
Assay [1] has as its target Peptidyl-prolyl cis-trans isomerase A (Homo sapiens, UniProt P62937). Description: Inhibition of cyclophilin A rotamase.

As a reminder, the Ki is a measure of affinity in units of concentration, obtained from inhibition or displacement. Higher therefore signals weaker binding.

Peptidyl-prolyl cis-trans isomerase A, sequence (P62937 whole entry): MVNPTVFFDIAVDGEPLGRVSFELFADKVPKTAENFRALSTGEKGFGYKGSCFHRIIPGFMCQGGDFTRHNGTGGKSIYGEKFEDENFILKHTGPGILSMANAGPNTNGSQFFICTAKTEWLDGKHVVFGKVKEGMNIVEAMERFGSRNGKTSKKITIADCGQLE

For `C/C=C/C[C@@H](C)C(O)[C@H]1C(=O)N[C@@H](CC)C(=O)N(C)CC(=O)N(C)[C@H](CC(C)C)C(=O)N[C@](C)(C(C)O)C(=O)N(C)[C@@H](CC(C)C)C(=O)N[C@@H](C)C(=O)N[C@H](C)C(=O)N(C)[C@H](CC(C)C)C(=O)N(C)[C@@H](CC(C)C)C(=O)N(C)[C@@H](C(C)C)C(=O)N1C` (stereo not given in full), the EC50 in the assay on T-cell was > 10000 nM. Besides, the inhibition constant Ki in assay [1] worked out at 18 nM.

As for `C=C1NC(=O)[C@H](C)NC(=O)[C@H](CC(C)C)N(C)C(=O)[C@H](C(C)C)NC(=O)[C@H](CC(C)C)N(C)C(=O)CN(C)C(=O)[C@H](CC)NC(=O)[C@H]([C@H](O)[C@H](C)C/C=C/C)N(C)C(=O)[C@H](C(C)C)N(C)C(=O)[C@H](CC(C)C)N(C)C(=O)[C@H](CC(C)C)N(C)C1=O`, the EC50 with T-cell is > 10000 nM.

For the compound `CCCC[C@@H](C)[C@@H](O)[C@H]1C(=O)N[C@@H](CC)C(=O)N(C)CC(=O)N(C)[C@@H](CC(C)C)C(=O)N[C@@H](C(C)C)C(=O)N(C)[C@@H](CC(C)C)C(=O)N[C@@H](C)C(=O)N[C@H](C)C(=O)N(C)[C@@H](CC(C)C)C(=O)N(C)[C@@H](CC(C)C)C(=O)N(C)[C@@H](C(C)C)C(=O)N1C`, in the assay with T-cell, the EC50 was found to be 130 nM.

Regarding `C/C=C/C[C@@H](C)[C@@H](O)[C@H]1C(=O)N[C@@H](CC)C(=O)N(C)CC(=O)N(C)[C@@H](CC)C(=O)N[C@@H](C(C)C)C(=O)N(C)[C@@H](CC(C)C)C(=O)N[C@@H](C)C(=O)N[C@H](C)C(=O)N(C)[C@@H](CC(C)C)C(=O)N(C)[C@@H](CC(C)C)C(=O)N(C)[C@@H](C(C)C)C(=O)N1C`, the EC50 in the assay with T-cell was > 10000 nM.
